Assay results: ChEMBL document CHEMBL5303711, “ECBD screening data for assay EOS300108” (2023)
Activity calls are given as the source filed them. The rule behind the calls is not given here.

test: Cytotoxicity activity against human HepG2 cells assessed by CellTiter-Glo luminescent cell viability assay.; type: toxicity, cell-based; design: assay stage confirmatory assay, source tissue liver; conditions: HepG2 cells, read-out: IC50 relative

| Structure (SMILES) | CC50 |
| --- | --- |
| COc1cc(/C=C/C(=O)CC(=O)/C=C/c2ccc(O)cc2)ccc1O | 11500 nM (active) |
| CN(C)CCNC(=O)NC[C@H]1CC[C@@H]2[C@H](O1)c1cc(C(F)(F)F)ccc1N[C@H]2c1ccccc1 | 3500 nM (active) |
| CCCCCCCCC(=O)N[C@H](CN1CCCC1)[C@H](O)c1ccc2c(c1)OCCO2 | 5100 nM (active) |
| Cn1nc(-c2ccc(C(F)(F)F)cc2)nc2c(=O)n(C)c(=O)nc1-2 | 1100 nM (active) |
| C#CCN(Cc1cc2c(=O)[nH]c(C)nc2cc1Br)c1ccc(C(=O)NCc2cccnc2)cc1 | 100 nM (active) |
| COc1ccc2[nH]c(C(=O)c3ccccc3)cc2c1 | 200 nM (inactive) |
| COc1ccc([N+](=O)[O-])c(S(=O)(=O)c2ccc(Cl)cc2)n1 | 2200 nM (active) |
| C[n+]1ccc(/C=C/c2c[nH]c3ccccc23)cc1 | 1200 nM (active) |
| O=C1Nc2ccccc2/C1=C1\Nc2ccccc2\C1=N/O | 14600 nM (inactive) |
| CCN(Cc1cc(Nc2nc(C)cn3c(-c4cn[nH]c4)cnc23)sn1)C(C)(C)CO | 1800 nM (active) |
| COc1cc(N2CCN(C)CC2)ccc1Nc1ncc2c(n1)N(C)c1ccccc1C(=O)N2 | 7500 nM (active) |
| CN1CCC(c2cc(-c3ccncc3)c(-c3ccc(F)cc3)[nH]2)CC1 | 9200 nM (active) |
| COc1cc2c(Nc3ccc(NC(=O)c4ccccc4)cc3)ncnc2cc1OCCCN1CCOCC1 | 3200 nM (active) |
| CN1CCCN(C(=O)c2cccc(-c3ccc(/C=C4/C(=O)Nc5ccc(Cl)cc54)o3)c2)CC1 | 600 nM (active) |
| CC(C)NC(=O)[C@H]1CC[C@@H](n2/c(=N/C(=O)c3ccc(F)cc3)[nH]c3ccc(CN4CCC(C(C)(C)O)CC4)cc32)CC1 | 800 nM (active) |
| CC(=O)N1c2ccc(-c3ccc(C(=O)O)cc3)cc2[C@H](Nc2ccc(Cl)cc2)C[C@@H]1C | 900 nM (active) |
| CCNC(=O)Nc1ccc(-c2nc3c(c(N4CCOC[C@@H]4C)n2)CCN(c2ncccn2)C3)cc1 | 200 nM (active) |
| NC(=O)c1cnc(NCCc2ccc(O)c(Cl)c2)nc1NCc1ccccc1 | 4200 nM (active) |
| c1cc(-c2cnn3cc(-c4ccc(N5CCNCC5)cc4)cnc23)c2cccnc2c1 | 900 nM (active) |
| COc1cc(C(=O)NC2CCN(C)CC2)ccc1Nc1ncc2c(n1)N(C1CCCC1)CC(F)(F)C(=O)N2C | 2900 nM (active) |
| O=C(NCc1ccc(S(=O)(=O)c2cc(F)cc(F)c2)cc1)c1ccc2nccn2c1 | < 100 nM (active) |

| Structure (SMILES) | CC50 |
| --- | --- |
| CC(C)c1ccc(-c2cc(=O)c3ccccc3o2)cc1 | 11100 nM (active) |
| Cc1cccc(CC(=O)N2CCc3c2ccc(-c2cn(C)c4ncnc(N)c24)c3F)n1 | 6700 nM (active) |
| c1cc(NC2CCNCC2)nc(-c2cnc3ccccn23)c1 | 4500 nM (active) |
| NC1(Cc2ccc(Cl)cc2)CCN(c2ncnc3[nH]ccc23)CC1 | 6700 nM (active) |
| Nc1ccccc1NC(=O)CCCCCC(=O)Nc1ccccc1 | 11700 nM (active) |
| CCCCNc1ncc(C(=O)NCc2ccc(-n3ccnc3)cc2)c(N[C@H]2CC[C@H](O)CC2)n1 | 2800 nM (active) |
| CN(CC(=O)N(Cc1ccc(C2CCCCC2)cc1)c1ccc(C(=O)O)cc1)S(=O)(=O)c1c(F)c(F)c(F)c(F)c1F | 3400 nM (active) |
| COc1cc(C(N)=O)ccc1NC(=O)[C@@H]1N[C@@H](CC(C)(C)C)[C@@]2(C(=O)Nc3cc(Cl)ccc32)[C@H]1c1cccc(Cl)c1F | 5300 nM (inactive) |
| O=C(CCN1CCN(C(=O)OCc2cc(Cl)cc(Cl)c2)CC1)c1ccc2[nH]c(=O)oc2c1 | 20600 nM (inactive) |
| COc1ccccc1-c1cc(Nc2cccc(CS(N)(=O)=O)c2)ncn1 | 2500 nM (active) |
| COc1cc2c3c(n(CCCNCCO)c(=O)c2cc1OC)-c1cc2c(cc1C3=O)OCO2 | 1100 nM (active) |
| CCCCNc1ncc2c(-c3ccc(CN4CCN(C)CC4)cc3)cn([C@H]3CC[C@H](O)CC3)c2n1 | 1300 nM (active) |
| O=C(Nc1cccc(C(F)(F)F)c1)Nc1cc(S(=O)(=O)NC2CC2)ccc1-c1ccsc1 | 10100 nM (active) |
| N#Cc1ccnc(Nc2cc(C3CCN(C4COC4)CC3)cc(N3CCC(F)(F)C3)n2)c1 | 1900 nM (active) |
| CN(C)C/C=C/C(=O)Nc1cccc(C(=O)Nc2ccc(Nc3nccc(-c4cccnc4)n3)cc2)c1 | 1000 nM (active) |
| O=C1c2ccccc2C(=O)c2oc(-c3ccccc3)nc21 | 2600 nM (active) |
| COc1cc2c(cc1OC)CN(CCc1ccc(NC(=O)c3cc(OC)c(OC)cc3NC(=O)c3cnc4ccccc4c3)cc1)CC2 | 27300 nM (inactive) |
| CCS(=O)(=O)c1ccc(CC(=O)Nc2cc(Cl)c(-c3ccccc3OC(F)(F)F)c(Cl)c2)cc1 | 12700 nM (inactive) |
| O=C(NO)c1cnc(NC2(c3ccccc3)CC2)nc1 | 7000 nM (active) |
| CCNC(=O)c1[nH]nc(-c2cc(Cl)c(O)cc2O)c1-c1ccc(OC)cc1 | 1000 nM (active) |
| Cc1cc(O)c(-c2ccc([C@@H](C)CN)cc2)c2c1[nH]c(=O)c1sccc12 | 100 nM (active) |

| Structure (SMILES) | CC50 |
| --- | --- |
| COc1cccc2c(NCc3ccccc3)nc(-n3c(N)nc4ccccc43)nc12 | 9600 nM (active) |
| N#Cc1cc2cc(CN3CCC(Nc4ncnc5sc(CC(F)(F)F)cc45)CC3)ccc2[nH]1 | 2200 nM (active) |
| Nc1ncc(-c2ccnc(Nc3ccncc3)n2)c(CC2CC2)n1 | 7000 nM (active) |
| Cc1c(-c2ccc(N3CCc4cccc(C(=O)Nc5nc6ccccc6s5)c4C3)nc2C(=O)O)cnn1CC12CC3CC(CC(C3)C1)C2 | 1000 nM (active) |
| CC(C)c1c2cc(-c3ccnc(N[C@H]4CC[C@H](NC5CCOCC5)CC4)n3)ccc2nn1C | 100 nM (active) |
| CN(C)CCCOc1ccc(-c2ccc3ncc4c(c3c2)n(C2CCOCC2)c(=O)n4C)cn1 | 7400 nM (active) |
| CCOc1cc(N2CCC(O)CC2)ccc1Nc1ncc2c(n1)N(C1CCCC1)CCC(=O)N2C | 4300 nM (active) |
| C=CC(=O)Nc1ccc(CN2C(=O)N(c3cc(OC)cc(OC)c3)Cc3cnc(Nc4ccc(N5CCN(C)CC5)cc4)nc32)cc1 | 3700 nM (active) |
| Nc1nc(N)c2c(OCC3CCN(Cc4c(Cl)cccc4Cl)CC3)cccc2n1 | 4000 nM (active) |
| CN1CCN(Cc2ccc(NC(=O)c3n[nH]cc3Nc3ncnc4[nH]ccc34)cc2)CC1 | 1100 nM (active) |
| COc1nc(OCc2cccc(-c3ccccc3)c2C)ccc1CNCCNC(C)=O | 4000 nM (active) |
| Cc1cc(N2C[C@@H](C)N[C@@H](C)C2)ncc1-c1ccc(-c2nc3c(ccn3C)c(=O)[nH]2)cc1 | 1800 nM (active) |
| CN(C)C/C=C/C(=O)Nc1ccc(C(=O)N2CCC[C@@H](Nc3ncc(Cl)c(-c4c[nH]c5ccccc45)n3)C2)cc1 | 100 nM (active) |
| CC(C)(C)c1cc(NC(=O)Nc2ccc(Oc3ccnc4[nH]c(=O)cnc34)cc2F)n(-c2ccccc2)n1 | 400 nM (active) |
| N#Cc1ccc(O[C@@H]2c3ccccc3C[C@H]2N2CCC[C@@H](N)C2)c(Cl)c1 | 4900 nM (active) |
| Cc1sc2c(c1C)C(c1ccc(Cl)cc1)=N[C@@H](CC(=O)NCCCCCCCCNC(=O)COc1cccc3c1C(=O)N(C1CCC(=O)NC1=O)C3=O)c1nnc(C)n1-2 (some centres not stated) | < 100 nM (active) |
| N[C@H]1CC[C@H](Nc2cc(-c3cccc(NCc4cccc(F)c4)n3)c(Cl)cn2)CC1 | 100 nM (active) |
| COc1ccc(-c2c[nH]c3nccc(-c4ccsc4)c23)c(OC)c1 | 7900 nM (active) |
| COc1cc(N2CCN(C)CC2)ccc1Nc1ncc2c(n1)N(C1CCC1)C(=O)N(c1c(C)cccc1C)C2 | 3300 nM (active) |
| CNc1nc(Nc2ccc(C(=O)N3CCOCC3)cc2OC)nc2[nH]cc(Cl)c12 | 5000 nM (active) |
| COC(=O)[C@H](CC(C)C)NC(=O)c1ccc(NC[C@@H](N)CS)cc1-c1cccc2ccccc12 | 50000 nM (inactive) |

| Structure (SMILES) | CC50 |
| --- | --- |
| CN(c1ccccc1CNc1nc(Nc2ccc3c(c2)CC(=O)N3)ncc1C(F)(F)F)S(C)(=O)=O | 1000 nM (active) |
| N#Cc1cnc2c(Cl)cc(NCc3cn(CCN4CCCCCC4)nn3)cc2c1Nc1ccc(F)c(Cl)c1 | 11600 nM (active) |
| O=[N+]([O-])c1ccc(Sc2cccc[n+]2[O-])c2nonc12 | 600 nM (active) |
| COc1ccc2c(c1)CN(C)CC2c1ccc(Cl)c(Cl)c1 (configuration not stated) | 12600 nM (active) |
| CN1CCN([C@H]2CC[C@H](n3cc(-c4ccc(Oc5ccccc5)cc4)c4c(N)ncnc43)CC2)CC1 | 1600 nM (active) |
| CC(C)=CCC[C@]1(C)C=Cc2c(O)c3c(c(CC=C(C)C)c2O1)O[C@]12C(=C[C@@H]4C[C@H]1C(C)(C)O[C@@]2(C/C=C(/C)C(=O)O)C4=O)C3=O | 700 nM (active) |
| CC(=O)c1cnc2ccc(-c3cc(Cl)c(O)c(Cl)c3)nc2c1N[C@H]1CC[C@H](CN(C)C)CC1 | 100 nM (active) |
| N#Cc1c(C2CCNCC2)cc(-c2c(O)cccc2OCC2CC2)nc1N | 5600 nM (active) |
| COc1cccc(OCCCN)c1-c1cc(Nc2cnc(C#N)cn2)n[nH]1 | 300 nM (active) |
| C=CCNc1c(O)cc2c(O)c1C[C@@H](C)C[C@H](OC)[C@H](O)[C@@H](C)/C=C(/C)[C@H](OC(N)=O)[C@@H](OC)/C=C\C=C(\C)C(=O)N2 | 100 nM (active) |
| COc1cc2nc(-c3cc(F)ccc3O)nc(N[C@@H]3CNC[C@H]3C(C)(C)O)c2cc1OC | 1600 nM (active) |
| C[C@]12CC/C(=N\OCCN)C[C@@H]1C(=O)C[C@@H]1[C@@H]2CC[C@]2(C)C(=O)CC[C@@H]12 | 10500 nM (active) |
| CCCOc1cc(OCCCCN(C)C)cc(Oc2cc3c(cc2NS(=O)(=O)c2ccc(OC)c(OC)c2)n(C)c(=O)n3C)c1 | 7800 nM (active) |
| Cc1cc(-c2cc(O)ccc2Cl)cc2nnc(Nc3ccc(OCCN4CCCC4)cc3)nc12 | 1400 nM (active) |
| CO[C@H]1/C=C\C=C(\C)C(=O)NC2=CC(=O)C(NCCN(C)C)=C(C[C@@H](C)C[C@H](OC)[C@H](O)[C@@H](C)/C=C(/C)[C@@H]1OC(N)=O)C2=O | < 100 nM (active) |
| C=CC(=O)Nc1cccc(Oc2nc(Nc3ccc(N4CCN(C)CC4)c(F)c3)nc3[nH]ccc23)c1 | 1900 nM (active) |
| NCC1CCN(c2nccc(-c3ccc4ccccc4c3)n2)CC1 | 4400 nM (active) |
| Cc1nc2c(=O)n(C)c(=O)nc-2n(C)n1 | 700 nM (active) |
| CN(C)Cc1ccc(-c2nc3cccc4c3n2CCNC4=O)cc1 | 10900 nM (active) |
